Key:
[1] = target: HLA-DRB1*0401 (Homo sapiens (Human), UniProt P01903+P01911, A100K/A169T/DEL228-266/F76Y/I96L/K127E/L162R/M171V/N62H/P40V/Q125Y/R42H/S133A/S149N/S66Y/V115G/V209L/W38E); assay: HLA-DR4 HTRF assay; format: binding; conditions: inhibition of loading of Alexa Fluor 647-labeled Cit-CII peptide onto HLA-DR4 (CLIP cleaved)
In short: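 HLA-DRB1*04:01 construct (α/β fused to human Fc, CLIP pre-cleaved by HRV3C overnight at 4° C) at 3 nM was preincubated 45 min with compound and 1 nM anti-Fc-Tb donor, then 40 nM Alexa647-Cit-CII1236-1249 peptide added. After 90 min at 37° C, the 665/620 nm HTRF ratio gave % inhibition; IC50 by nonlinear regression.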

[2] = system: HLA-DR4 restricted mouse T cell hybridoma line (DR4.CII.36.8) with HLA-DRB1*04:01-expressing Boleth cells; assay: HLA-DR4-restricted peptide-specific T cell-based assay (hybridoma assay); conditions: 6 h, inhibition of IL-2 production, CII259-273 peptide presented by Boleth cells
In short: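 Boleth cells (HLA-DRB1*04:01 B cell line) pre-incubated with compound 1 h at 37° C. in DMEM/1% FCS, then DR4.CII.36.8 mouse T cell hybridoma (CII259-273-specific) added for 6 h with CII259-273 peptide. Supernatant mouse IL-2 by AlphaLISA; IC50 by 4-PL fit of 8-point duplicate titrations.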

`Cc1c(O[C@@H](c2ccncc2)c2ccc(S(C)(=O)=O)cc2)c(F)cc2c1OCCC2=O` (single isomer, unassigned) [Example 104a, (*R)-6-fluoro-8-methyl-7-((4-(methylsulfonyl)phenyl)(pyridin-4-yl)methoxy)chroman-4-one] showed an IC50 [1] of 0.29 µM and an IC50 ([2]; Mus musculus, T-cell) of 3.9 µM.

Compound `Cc1cc([C@@H](Oc2cc3c(cc2F)C(=O)CCO3)c2ccc(C(N)=O)cc2)cc(C)n1` (single isomer, unassigned) [Example 109b, (*S)-4-((2,6-dimethylpyridin-4-yl)((6-fluoro-4-oxochroman-7-yl)oxy)methyl)benzamide] has an IC50 [1] of 0.23 µM and an IC50 [2] of 12 µM.

Compound `Cc1c(O[C@H](c2ccc(Cl)cc2)c2ccc(C(N)=O)cn2)ccc2c1OCCC2=O` (single isomer, unassigned) [Example 63a, (*R)-6-((4-chlorophenyl)((8-methyl-4-oxochroman-7-yl)oxy)methyl)nicotinamide] has an IC50 [1] of 1.6 µM and an IC50 ([2]; Mus musculus, T-cell) of over 15 µM.

`Cc1c(O[C@H]2CCCc3cc(C#N)ccc32)ccc2c1OCCC2=O` (single isomer, unassigned) [Example 122b, (*S)-5-((8-methyl-4-oxochroman-7-yl)oxy)-5,6,7,8-tetrahydronaphthalene-2-carbonitrile] was tested, and the IC50 [1] was 0.93 µM and the IC50 ([2]; Mus musculus, T-cell) was 15 µM.

Work on `COc1c(O[C@@H](c2ccncc2)c2ccc(C(N)=O)cc2)ccc2c1OCCC2=O` (single isomer, unassigned) [Example 100a, (*R)-4-(((8-methoxy-4-oxochroman-7-yl)oxy)(pyridin-4-yl)methyl)benzamide] yielded an IC50 [1] of 6.4 µM and an IC50 ([2]; Mus musculus, T-cell) of 7.6 µM.

`Cc1c(O[C@H](c2ccncc2)c2cccc(S(C)(=O)=O)c2)c(F)cc2c1OCCC2=O` (single isomer, unassigned) [Example 105a, (*R)-6-fluoro-8-methyl-7-((3-(methylsulfonyl)phenyl)(pyridin-4-yl)methoxy)chroman-4-one] was tested, and the IC50 [1] was 0.2 µM and the IC50 ([2]; Mus musculus, T-cell) was over 15 µM.

With `NC(=O)c1ccc([C@H](Oc2ccc3c(c2)OCCC3=O)c2ccncn2)cc1` (single isomer, unassigned) [Example 33b, (*S)-4-(((4-Oxochroman-7-yl)oxy)(pyrimidin-4-yl)methyl)benzamide] the IC50 [1] was 0.59 µM and the IC50 ([2]; Mus musculus, T-cell) was over 15 µM.

`Cc1c(O[C@@H](c2ccncc2)c2cccc(CNC(N)=O)c2)ccc2c1OCCC2=O` (single isomer, unassigned) [Example 81a, (*R)-1-(3-(((8-methyl-4-oxochroman-7-yl)oxy)(pyridin-4-yl)methyl)benzyl)urea] showed an IC50 [1] of 0.69 µM and an IC50 ([2]; Mus musculus, T-cell) of 15 µM.

Work on `NC(=O)c1ccc([C@H](Oc2cc(F)c3c(c2)OCCC3=O)c2ccncc2)cc1` (single isomer, unassigned) [Example 51b, (*S)-4-(((5-Fluoro-4-oxochroman-7-yl)oxy)(pyridin-4-yl)methyl)benzamide] yielded an IC50 [1] of 3.5 µM and an IC50 ([2]; Mus musculus, T-cell) of 15 µM.

`N#Cc1cc(O[C@H](c2ccncc2)c2ccc(C(N)=O)cc2)cc2c1C(=O)CCO2` (single isomer, unassigned) [Example 101b, (*S)-4-(((5-cyano-4-oxochroman-7-yl)oxy)(pyridin-4-yl)methyl)benzamide] showed an IC50 [1] of 1.3 µM and an IC50 ([2]; Mus musculus, T-cell) of 12 µM.

For `Cc1cnccc1[C@@H](Oc1ccc2c(c1)OCCC2=O)c1ccc(C(N)=O)cc1` (single isomer, unassigned) [Example 21b, (*S)-4-((3-Methylpyridin-4-yl)((4-oxochroman-7-yl)oxy)methyl)benzamide], the IC50 [1] was 0.64 µM and the IC50 ([2]; Mus musculus, T-cell) was 5.4 µM.

`NC(=O)c1ccc([C@H](Oc2ccc3c(c2)OCCC3=O)c2ccncc2N)cc1` (single isomer, unassigned) [Example 27b, (*S)-4-((3-aminopyridin-4-yl)((4-oxochroman-7-yl)oxy)methyl)benzamide] showed an IC50 [1] of 6.4 µM and an IC50 ([2]; Mus musculus, T-cell) of over 15 µM.

For `CC[C@H]1CC(=O)c2ccc(OCc3ccncc3OC)cc2O1` (single isomer, unassigned) [Example 119b, (*S)-2-ethyl-7-((3-methoxypyridin-4-yl)methoxy)chroman-4-one], the IC50 [1] was 0.69 µM and the IC50 ([2]; Mus musculus, T-cell) was over 15 µM.

With `Cc1cnccc1[C@H](Oc1ccc2c(c1)OCCC2=O)c1ccc(C(N)=O)cc1` (single isomer, unassigned) [Example 21a, (*R)-4-((3-Methylpyridin-4-yl)((4-oxochroman-7-yl)oxy)methyl)benzamide] the IC50 [1] was 1 µM and the IC50 ([2]; Mus musculus, T-cell) was 5.4 µM.

`Cc1c(O[C@@H]2CCCc3cc(C#N)ccc32)ccc2c1OCCC2=O` (single isomer, unassigned) [Example 122a, (*R)-5-((8-methyl-4-oxochroman-7-yl)oxy)-5,6,7,8-tetrahydronaphthalene-2-carbonitrile] showed an IC50 [1] of 0.54 µM and an IC50 ([2]; Mus musculus, T-cell) of 6.3 µM.

Compound `NC(=O)c1ccc([C@H](Oc2ccc3c(c2)OCCC3=O)c2ccncc2F)cc1` (single isomer, unassigned) [Example 20b, (*S)-4-((3-fluoropyridin-4-yl)((4-oxochroman-7-yl)oxy)methyl)benzamide] has an IC50 [1] of 0.91 µM and an IC50 ([2]; Mus musculus, T-cell) of 6.2 µM.

`NC(=O)c1ccc([C@H](Oc2ccc3c(c2)OCCC3=O)c2ccncc2)c2ccccc12` (single isomer, unassigned) [Example 98a, (*R)-4-(((4-oxochroman-7-yl)oxy)(pyridin-4-yl)methyl)-1-naphthamide] gave an IC50 [1] of 9 µM and an IC50 ([2]; Mus musculus, T-cell) of 5.9 µM.

Compound `COc1ccc([C@@H](Oc2c(F)cc3c(c2C)OCCC3=O)c2ccncc2)cc1` (single isomer, unassigned) [Example 103a, (*R)-6-fluoro-7-((4-methoxyphenyl)(pyridin-4-yl)methoxy)-8-methylchroman-4-one] has an IC50 [1] of 2.9 µM and an IC50 ([2]; Mus musculus, T-cell) of 15 µM.

Work on `Cc1c(O[C@@H](c2ccc(C(N)=O)cc2)c2ccnc(CCC(=O)O)c2)ccc2c1OCCC2=O` (single isomer, unassigned) [Example 87b] yielded an IC50 [1] of 0.51 µM and an IC50 ([2]; Mus musculus, T-cell) of over 15 µM.

`Cc1cc([C@H](Oc2ccc3c(c2C(C)C)OCCC3=O)c2ccc(C(N)=O)cc2)cc(C)n1` (single isomer, unassigned) [Example 106a, (*R)-4-((2,6-dimethylpyridin-4-yl)((8-isopropyl-4-oxochroman-7-yl)oxy)methyl)benzamide] was tested, and the IC50 [1] was 0.47 µM and the IC50 ([2]; Mus musculus, T-cell) was 0.057 µM.

`Cc1c(O[C@H](c2ccncc2)c2cccc(F)c2)c(F)cc2c1OCCC2=O` (single isomer, unassigned) [Example 96a, (*R)-6-fluoro-7-((3-fluorophenyl)(pyridin-4-yl)methoxy)-8-methylchroman-4-one] was tested, and the IC50 [1] was 0.3 µM and the IC50 ([2]; Mus musculus, T-cell) was 11 µM.

For `Cc1c(OC2CCCc3cc(C#N)ccc32)ccc2c1OCCC2=O` (racemic) [Example 122, (R,S)-5-((8-Methyl-4-oxochroman-7-yl)oxy)-5,6,7,8-tetrahydronaphthalene-2-carbonitrile], the IC50 [1] was 1.1 µM and the IC50 ([2]; Mus musculus, T-cell) was 15 µM.

`COc1ccccc1[C@@H](Oc1ccc2c(c1)OCCC2=O)c1ccncc1` (single isomer, unassigned) [Example 14b, (*S)-7-((2-Methoxyphenyl)(pyridin-4-yl)methoxy)chroman-4-one] was tested, and the IC50 [1] was 1.9 µM and the IC50 ([2]; Mus musculus, T-cell) was 11 µM.

`NC(=O)c1ccccc1[C@@H](Oc1ccc2c(c1)OCCC2=O)c1ccncc1` (single isomer, unassigned) [Example 8b, (*S)-2-(((4-Oxochroman-7-yl)oxy)(pyridin-4-yl)methyl)benzamide] showed an IC50 [1] of 0.82 µM and an IC50 ([2]; Mus musculus, T-cell) of 6.5 µM.

For `NC(=O)c1ccc([C@H](Oc2ccc3c(c2)OCCC3=O)c2ccc(Cl)cc2)cc1` (single isomer, unassigned) [Example 30b, (*S)-4-((4-Chlorophenyl)((4-oxochroman-7-yl)oxy)methyl)benzamide], the IC50 [1] was 1.2 µM and the IC50 ([2]; Mus musculus, T-cell) was 6.4 µM.

With `C[C@H]1COc2cc(O[C@H](c3ccncc3)c3ccc(C(N)=O)cc3)ccc2C1=O` (single isomer, unassigned) [Example 44d, 4-((*S)—(((*S)-3-Methyl-4-oxochroman-7-yl)oxy)(pyridin-4-yl)methyl)benzamide] the IC50 [1] was 0.85 µM and the IC50 ([2]; Mus musculus, T-cell) was over 15 µM.

Work on `Cc1c(O[C@H](c2ccncc2)c2ccc(S(C)(=O)=O)cc2)c(F)cc2c1OCCC2=O` (single isomer, unassigned) [Example 104b, (*S)-6-fluoro-8-methyl-7-((4-(methylsulfonyl)phenyl)(pyridin-4-yl)methoxy)chroman-4-one] yielded an IC50 [1] of 0.23 µM and an IC50 ([2]; Mus musculus, T-cell) of 1.1 µM.

For `Cc1c(O[C@@H](c2ccncc2)c2cccc(F)c2)c(F)cc2c1OCCC2=O` (single isomer, unassigned) [Example 96b, (*S)-6-fluoro-7-((3-fluorophenyl)(pyridin-4-yl)methoxy)-8-methylchroman-4-one], the IC50 [1] was 0.47 µM and the IC50 ([2]; Mus musculus, T-cell) was over 15 µM.
